# Experimental data published in patent US7419780B2, “Methods and assays for screening protein targets” (The Trustees of Columbia University in the City of New York, priority 2000, dated 2008).
# System: S. cerevisiae strain FY250
compound,measurement,value
"C[C@@H]1C[C@H]2[C@@H]3CCC4=CC(=O)C=C[C@]4(C)[C@@]3(F)[C@@H](O)C[C@]2(C)[C@@]1(O)C(=O)CO [DEX, Dexamethasone]",toxicity (impaired cell growth on plate),neither DEX nor GR are toxic
